The source of these data is BindingDB's records for doi:10.1021/jm049715t (Uppsala University, 2004).

In this experiment the target is Type-2 angiotensin II receptor (Sus scrofa). Put plainly: Displacement of [125I]-Ang II from pig uterus membrane angiotensin II type 2 (AT2) receptor.

Broadly, the Ki is a dissociation constant, usually derived from enzyme kinetics or from competition with a known ligand. Compound `CCCCOC(=O)NS(=O)(=O)c1sc(CC(C)C)cc1-c1ccc(Cn2c(CC)nc3ccccc32)cc1` [butyl (5-isobutylthien-2-yl)sulfonylcarbamate derivative] yielded a Ki of 3.2 nM.

On to `CCCCOC(=O)NS(=O)(=O)c1sc(CC(C)C)cc1-c1ccc(Cn2cnc3ccccc32)cc1` [butyl (5-isobutylthien-2-yl)sulfonylcarbamate derivative], for which the inhibition constant Ki worked out at 4 nM.

With `CCCCOC(=O)NS(=O)(=O)c1sc(CC(C)C)cc1-c1ccc(Cn2cnc3cccnc32)cc1` [butyl (5-isobutylthien-2-yl)sulfonylcarbamate derivative], affinity was put at a Ki of 7.1 nM.

Compound `CCCCOC(=O)NS(=O)(=O)c1sc(CC(C)C)cc1-c1ccc(CC#N)cc1` [butyl (5-isobutylthien-2-yl)sulfonylcarbamate derivative] yielded an inhibition constant Ki of 70 nM.

With `CCCCOC(=O)NS(=O)(=O)c1sc(CC(C)C)cc1-c1ccc(Cn2ccnc2C)cc1` [butyl (5-isobutylthien-2-yl)sulfonylcarbamate derivative], the affinity corresponds to a Ki of 0.5 nM. Against the preceding compound, the Ki is about 140-fold lower.
